Structures can show the parent of a compound that is named as a salt.
What was measured:
[1] = test system: zebrafish lateral line hair cells; assay: PEPITA quantification of ototoxicity in YO-PRO-1-stained AB zebrafish larvae; format: in vivo
Method: Therefore, at 5 dpf, larvae were transferred to 12-well plates (5–11 fish per well, 1 well per condition) containing the relevant compound or combination diluted with ICS water, or ICS water alone or high-dose neomycin to serve as controls. Unless otherwise noted, fish were exposed to drug (either an individual compound or a pairwise combination of compounds) for 4 h, as a balance between longer exposure times for accommodating varied kill kinetics and shorter exposure times for technical tractability. Treatments with multiple drugs involved co-administering a prepared solution consisting of both drugs with defined concentrations in ICS water.
Fluorescence microscopy was performed using a Keyence BZ-X800 microscope imaging system, which enables high-throughput semi-automated imaging of 96-well plates.
Each image was masked using automated object detection to include only the fish itself. Manual masks were created on occasion for avoidance of fluorescent contamination, adjusted segmenting for myo6b::gfp fish to remove inner ear HC fluorescence, or exclusion of dead or damaged fish. Each fish was then adjusted for autofluorescence using the fluorophore-free red channel and scored based on the sum of green fluorescence pixel values surrounding 10 of the top 15 brightest pixels in the masked image (Figures 1B–E). These scores were standardized by comparison with the median score of wells containing untreated fish and a score representing no remaining HC fluorescence, both derived for each plate.
Wells where the expected response ( Ra×Rb ) and observed response ( Rab ) were both less than 10% or greater than 90% were excluded from aggregation to reduce the effect of our choice of dose range. The remaining wells were summarized by averaging into a composite interaction score for the combination; we refer to this metric as the “windowed excess over Bliss” (wEOB).

[2] = test system: zebrafish lateral line hair cells; assay: Lateral line hair cell intracellular calcium imaging and cell death; format: in vivo
Description: For calcium testing, zebrafish expressing HC-specific GCaMP targeted to the inner mitochondrial matrix were crossed with fish expressing a HC specific calcium indicator to create double-transgenic embryos (Tg (myo6b:mitoGCaMP3;myo6b:cytoRGECO), Table 1) with both green fluorescent mitochondrial calcium and red fluorescent cytosolic calcium indicators, then raised as described previously ([McQuate et al., 2023]). Zebrafish embryos were collected from 2-h spawning periods and raised in Petri dishes in embryo medium (EM: 14.97 mM NaCl, 500 μM KCl, 42 µM Na2HPO4, 150 µM KH2PO4, 1 mM CaCl2 dehydrate, 1 mM MgSO4, 0.714 mM NaHCO3, pH 7.2) at a density of 60 larvae per […] dish, in a dark 28.5°C incubator until 5 dpf. Larvae were screened for indicator expression at 4 dpf.
Calcium imaging was performed using an inverted Marianas spinning disk confocal system (Intelligent Imaging Innovations, 3i) with an Evolve 10 MHz EMCCD camera (Photometrics) and a Zeiss C-Apochromat 63x/1.2 numerical aperture water objective. Larvae were 5-6 dpf at the time of imaging. Larvae were first anesthetized in embryo media containing 800 µM tricaine, then stabilized on their sides under a harp, so that posterior neuromasts were exposed to the surrounding media. Imaging was performed at ambient temperature, approximately 25°C. GCaMP fluorescence was acquired with a 488 nm laser and 535/30 emission filter, with an exposure time of 100 ms, and RGECO fluorescence was acquired with a 561 nm laser and 617/73 emission filter and exposure time of 200 ms. Images were taken every 2 minutes as z-stacks through neuromasts in 2 µm steps. Neomycin and azithromycin were dissolved as a 4X stock in EM (described in Section 2.1: Zebrafish Husbandry), then added to the bath to achieve final working concentration after a 10-min baseline. Imaging of neuromasts continued for 50 min. Images were analyzed in ImageJ. Mean fluorescence intensity was measured for ROIs of individual randomly selected HCs (2–3 HCs per NM, see example ROI in Figure 4). For each HC, values were normalized to the average of baseline using Microsoft Excel.

[3] = test system: zebrafish lateral line hair cells; assay: Standard assay: manual hair cell counting from individual neuromasts (confocal); format: in vivo, Danio rerio; conditions: same representative experiment as PEPITA curve; read-out: EC50 (Standard Assay, normalized HC counts from individual neuromasts)
Method: To prepare the fish for confocal microscopy, fish were fixed in 2% paraformaldehyde for 1 hour at room temperature as described previously ([Philip et al., 2018]), before being transferred to fluoromount and mounted between two glass coverslips. To avoid crushing the fish, a dot of nail polish was placed on each corner of the coverslip so that the top coverslip sat slightly above the bottom coverslip where the fish was mounted. Fluorescent confocal microscopy was performed using a Leica Stellaris 8 microscope. Cranial lateral line neuromasts of each fish were imaged under an HC PL APO CS2 40x/1.30 oil objective with a 405 nm laser and 541/47 emission filter. Images were taken as z-stacks in 0.66 µm steps. Stacks were transformed into average intensity projections and prepared for visual analysis in ImageJ.
For hair cell survival quantification from individual neuromasts, trained observers counted surviving hair cells in confocal images of neuromasts of larvae that had been treated with various doses of neomycin. Two to eight neuromasts were scored per condition, and counts for each neuromast were averaged between two scorers. These counts were divided by previously characterized mean hair cell counts ([Harris et al., 2003]), matched by anatomical position, to yield a position-scaled measure of HCs present in each neuromast. […]

NC[C@@H]1O[C@H](O[C@H]2[C@@H](O)[C@H](O[C@@H]3[C@@H](O)[C@H](N)C[C@H](N)[C@H]3O[C@H]3O[C@H](CN)[C@@H](O)[C@H](O)[C@H]3N)O[C@@H]2CO)[C@H](N)[C@@H](O)[C@@H]1O [Neomycin, Neomycin sulfate hydrate]
RFU (residual HC fluorescence) ([1]; AZM 0 μM, NEO 6.4 μM, 4 h): 10% | RFU (residual HC fluorescence) ([1]; AZM 96 μM + NEO 6.4 μM, 4 h): 88% | windowed excess over Bliss (wEOB) ([1]; AZM + NEO checkerboard, negative = antagonism): −0.36 | dose needed to elicit 75% maximal HC damage (EC75) ([1]; NEO alone, 4 h): 3.3 µM | ototoxic interaction with AZM ([1]; co-administration with AZM): otoprotective antagonistic interactions | shift toward antagonism in lateral line HC damage as compared to inhibition of the bacterial species on average ([1]; interaction with AZM, zebrafish wEOB vs average of E. coli, M. abscessus, S. aureus): 44 %pt. | EC75 shift ([1]; ototoxin co-administered with azithromycin (AZM) vs administered alone): 13 fold | EC75 shift ([1]; ototoxin co-administered with azithromycin (AZM) vs administered alone, listed as Neomycin (NEO)): 13-fold | EC75 shift ([1]; ototoxin co-administered with erythromycin (ERY) vs administered alone, listed as NEO): 8 fold | EC75 shift ([1]; ototoxin co-administered with erythromycin (ERY) vs administered alone, listed as Neomycin (NEO)): 8-fold | ototoxic interaction with clarithromycin (CLM) ([1]; preliminary experiments): antagonistic interactions | EC50 ([1]; representative experiment, HC damage dose response, read-out: EC50 (PEPITA, relative fluorescence units)): 1400 nM | HC mitochondrial and cytoplasmic calcium response ([2]; NEO 50 µM, AZM 190 µM, mitoGCaMP3, cytoRGECO larvae): induced an increase in mitochondrial | HCs that went on to die, of those analyzed ([2]; NEO alone 50 µM): 66% | cells that went on to die ([2]; drug alone, calcium imaging): 14/21 | EC50 [3]: 2000 nM

Reference: publication PMC10955247, “In vivo screening for toxicity-modulating drug interactions identifies antagonism that protects against ototoxicity in zebrafish” (Frontiers in Pharmacology, 2024)
